The results in this text go back to PubChem BioAssay AID248 (DTP/NCI, 2004).

Values joined by “and” are separate entries in the source; they are usually repeats but may differ in a detail not shown here. Identical values can stand only once. Inconclusive results and toxic doses are left out.

For this assay, the system named is L1210 leukemia ip in BDF1 mice, survival T/C. Briefly: NCI In Vivo Anticancer Drug Screen. Data for tumor model L1210 Leukemia (intraperitoneal) in B6D2F1 (BDF1) mice. The note with it: endpoint: mean survival time, higher = longer survival. Summed up: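 Mice bearing the transplanted tumor received compound or vehicle. Survival of the treated group was divided by that of the vehicle-treated control group to give the ratio.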

The mark [1] stands for this setting: dose: 50.0 mg/kg/injection, schedule: Q01DX001 (ip), vehicle: saline.
Setting [2] is: dose: 100.0 mg/kg/injection, schedule: Q01DX001 (ip), vehicle: saline.
[3] abbreviates: dose: 200.0 mg/kg/injection, schedule: Q01DX001 (ip), vehicle: saline.
Setting [4] is: dose: 400.0 mg/kg/injection, schedule: Q01DX001 (ip), vehicle: saline.
Where [5] appears, read: dose: 100.0 mg/kg/injection, schedule: Q01DX009 (ip), vehicle: Klucel (hydroxypropylcellulose) (HPC).
[6] abbreviates: dose: 100.0 mg/kg/injection, schedule: Q01DX009 (ip), vehicle: saline with Tween-80.
[7] abbreviates: dose: 100.0 mg/kg/injection, schedule: Q04DX003 (ip), vehicle: saline with Tween-80.
Where [8] appears, read: dose: 200.0 mg/kg/injection, schedule: Q01DX009 (ip), vehicle: Klucel (hydroxypropylcellulose) (HPC).
Setting [9] is: dose: 200.0 mg/kg/injection, schedule: Q01DX009 (ip), vehicle: saline with Tween-80.
Where [10] appears, read: dose: 200.0 mg/kg/injection, schedule: Q04DX003 (ip), vehicle: saline with Tween-80.
Where [11] appears, read: dose: 400.0 mg/kg/injection, schedule: Q01DX009 (ip), vehicle: Klucel (hydroxypropylcellulose) (HPC).
Setting [12] is: dose: 400.0 mg/kg/injection, schedule: Q01DX009 (ip), vehicle: saline with Tween-80.
Where [13] appears, read: dose: 400.0 mg/kg/injection, schedule: Q04DX003 (ip), vehicle: saline with Tween-80.
The mark [14] stands for this setting: dose: 50.0 mg/kg/injection, schedule: Q01DX009 (ip), vehicle: saline with Tween-80.

Regarding `O=C1CCCC(=O)NNC(=O)Nc2ccccc2NC(=O)NN1`, the T/C by setting is: under setting [1], 102 % of control; under setting [2], 90 % of control; under setting [3], 96 % of control; under setting [4], 96 % of control.
Turning to `NNc1ccc(C(=O)O)cc1`, the T/C was 100 % of control under setting [5]; 98 % of control and 101 % of control under setting [6]; 102 % of control (dose: 100.0 mg/kg/injection, schedule: Q04DX003 (ip), vehicle: Klucel (hydroxypropylcellulose) (HPC)); 100 % of control and 101 % of control under setting [7]; 96 % of control under setting [8]; 93 % of control and 95 % of control under setting [9]. The T/C (dose: 200.0 mg/kg/injection, schedule: Q04DX003 (ip), vehicle: Klucel (hydroxypropylcellulose) (HPC)) is 91 % of control; the T/C under setting [10] was 96 % of control and 108 % of control; the T/C under setting [11] was 100 % of control; the T/C under setting [12] was 117 % of control and 91 % of control; the T/C (dose: 400.0 mg/kg/injection, schedule: Q04DX003 (ip), vehicle: Klucel (hydroxypropylcellulose) (HPC)) was 96 % of control; the T/C under setting [13] was 94 % of control and 96 % of control.
In the case of `O=[N+]([O-])CC(O)c1ccccc1Cl` (stereo unspecified), the T/C was 95 % of control under setting [14] and 98 % of control under setting [6].
As for `CCCCS(=O)(=O)CCN1C(=O)C2C3CCC(O3)C2C1=O` (stereo unspecified), the T/C is 98 % of control (dose: 100.0 mg/kg/injection, schedule: Q04DX002 (ip), vehicle: Klucel (hydroxypropylcellulose) (HPC)); 123 % of control (dose: 200.0 mg/kg/injection, schedule: Q04DX002 (ip), vehicle: Klucel (hydroxypropylcellulose) (HPC)); 107 % of control (dose: 400.0 mg/kg/injection, schedule: Q04DX002 (ip), vehicle: Klucel (hydroxypropylcellulose) (HPC)).
For the molecule `C/C(=N\NC(=S)Nc1cc(I)ccc1C)c1cc([N+](=O)[O-])c(O)cc1O`, the T/C is 102 % of control (dose: 12.5 mg/kg/injection, schedule: Q04DX002 (ip), vehicle: Klucel (hydroxypropylcellulose) (HPC)); 97 % of control (dose: 25.0 mg/kg/injection, schedule: Q04DX002 (ip), vehicle: Klucel (hydroxypropylcellulose) (HPC)); 105 % of control (dose: 50.0 mg/kg/injection, schedule: Q04DX002 (ip), vehicle: Klucel (hydroxypropylcellulose) (HPC)).
On to `COc1cc([N+](=O)[O-])ccc1NC(=O)Cc1ccccc1`, for which the T/C runs as follows: under setting [6], 111 % of control; under setting [9], 91 % of control; under setting [12], 96 % of control.
As for `COC(=O)N/N=C/Cc1ccccc1`, the T/C runs as follows: (dose: 25.0 mg/kg/injection, schedule: Q01DX009 (ip), vehicle: saline with Tween-80) 91 % of control; under setting [14], 90 % of control; under setting [6], 102 % of control.
As to `CCCC(/C=N\NC(=O)c1ccc[n+](C)c1)CC` (stereo unspecified), the T/C is, setting by setting: (dose: 50.0 mg/kg/injection, schedule: Q01DX009 (ip), vehicle: saline) 103 % of control; (dose: 100.0 mg/kg/injection, schedule: Q01DX009 (ip), vehicle: saline) 103 % of control; (dose: 200.0 mg/kg/injection, schedule: Q01DX009 (ip), vehicle: saline) 100 % of control.
As for `CCOP(=O)(OCC)Oc1ccccc1`, the T/C is 91 % of control (dose: 100.0 mg/kg/injection, schedule: Q04DX003 (ip), vehicle: saline); 92 % of control (dose: 200.0 mg/kg/injection, schedule: Q04DX003 (ip), vehicle: saline); 94 % of control (dose: 400.0 mg/kg/injection, schedule: Q04DX003 (ip), vehicle: saline).
Take `O=[N+]([O-])/C(=C/C=C/c1ccccc1)c1ccccc1`: the T/C (dose: 50.0 mg/kg/injection, schedule: Q01DX009 (ip), vehicle: Klucel (hydroxypropylcellulose) (HPC)) is 96 % of control; the T/C under setting [5] was 89 % of control; the T/C under setting [8] is 86 % of control.
As for `Clc1cccc(C[P+](c2ccccc2)(c2ccccc2)c2ccccc2)c1`, the T/C runs as follows: (dose: 1.5 mg/kg/injection, schedule: Q01DX009 (ip), vehicle: Klucel (hydroxypropylcellulose) (HPC)) 91 % of control; (dose: 3.0 mg/kg/injection, schedule: Q01DX009 (ip), vehicle: Klucel (hydroxypropylcellulose) (HPC)) 94 % of control; (dose: 6.0 mg/kg/injection, schedule: Q01DX009 (ip), vehicle: Klucel (hydroxypropylcellulose) (HPC)) 88 % of control; (dose: 12.5 mg/kg/injection, schedule: Q04DX003 (ip), vehicle: Klucel (hydroxypropylcellulose) (HPC)) 98 % of control; (dose: 25.0 mg/kg/injection, schedule: Q04DX003 (ip), vehicle: Klucel (hydroxypropylcellulose) (HPC)) 98 % of control.
Turning to `OCCC(c1ccccc1)(c1ccccc1)c1ccccc1`, the T/C is, setting by setting: (dose: 6.25 mg/kg/injection, schedule: Q04DX003 (ip), vehicle: saline with Tween-80) 98 % of control; (dose: 12.5 mg/kg/injection, schedule: Q04DX003 (ip), vehicle: saline with Tween-80) 100 % of control; (dose: 25.0 mg/kg/injection, schedule: Q04DX003 (ip), vehicle: saline with Tween-80) 89 % of control and 91 % of control; under setting [7], 90 % of control.
As to `O=C(O)c1cc(Cl)nc(Cl)c1`, the T/C was 97 % of control under setting [5] and 88 % of control under setting [8].
In the case of `Cc1ccc(Nc2cc(=O)[nH]c(N)n2)cc1Cl`, the T/C is, setting by setting: (dose: 100.0 mg/kg/injection, schedule: Q01DX Z (ip), vehicle: methylcellulose (MC)) 86 % of control; (dose: 200.0 mg/kg/injection, schedule: Q01DX Z (ip), vehicle: methylcellulose (MC)) 103 % of control.
In the case of `O=C(Nc1ccc(C(=O)Nc2ccc(C3=NCCN3)cc2)cc1)Nc1ccc(C2=NCCN2)cc1`, the T/C runs as follows: (dose: 1.88 mg/kg/injection, schedule: Q01DX Z (ip), vehicle: saline) 117 % of control; (dose: 3.75 mg/kg/injection, schedule: Q01DX Z (ip), vehicle: saline) 117 % of control; (dose: 7.5 mg/kg/injection, schedule: Q01DX Z (ip), vehicle: saline) 123 % of control; (dose: 30.0 mg/kg/injection, schedule: Q01DX Z (ip), vehicle: carboxymethylcellulose (CMC)) 166 % of control; (dose: 30.0 mg/kg/injection, schedule: Q01DX Z (sc), vehicle: saline) 97 % of control; (dose: 44.0 mg/kg/injection, schedule: Q01DX007 (oral), vehicle: carboxymethylcellulose (CMC)) 103 % of control. In addition, the T/C runs as follows: (dose: 60.0 mg/kg/injection, schedule: Q01DX Z (ip), vehicle: carboxymethylcellulose (CMC)) 218 % of control; (dose: 60.0 mg/kg/injection, schedule: Q01DX Z (sc), vehicle: saline) 109 % of control; (dose: 62.5 mg/kg/injection, schedule: Q01DX010 (oral), vehicle: saline) 109 % of control; (dose: 88.0 mg/kg/injection, schedule: Q01DX007 (oral), vehicle: carboxymethylcellulose (CMC)) 101 % of control; (dose: 120.0 mg/kg/injection, schedule: Q01DX Z (ip), vehicle: carboxymethylcellulose (CMC)) 192 % of control; (dose: 120.0 mg/kg/injection, schedule: Q01DX Z (sc), vehicle: saline) 120 % of control. The T/C is 108 % of control (dose: 125.0 mg/kg/injection, schedule: Q01DX010 (oral), vehicle: saline); 101 % of control (dose: 175.0 mg/kg/injection, schedule: Q01DX007 (oral), vehicle: carboxymethylcellulose (CMC)); 154 % of control (dose: 240.0 mg/kg/injection, schedule: Q01DX Z (sc), vehicle: saline); 106 % of control (dose: 250.0 mg/kg/injection, schedule: Q01DX010 (oral), vehicle: saline); 100 % of control (dose: 350.0 mg/kg/injection, schedule: Q01DX007 (oral), vehicle: carboxymethylcellulose (CMC)); 106 % of control (dose: 500.0 mg/kg/injection, schedule: Q01DX010 (oral), vehicle: saline). Also, where the note is “dose: 700.0 mg/kg/injection, schedule: Q01DX007 (oral), vehicle: carboxymethylcellulose (CMC)”, the T/C is 100 % of control.
`CCCC(=O)CC(=O)CC(C)C`: the T/C is 100 % of control under setting [1], 94 % of control under setting [2], 107 % of control under setting [3] and 94 % of control under setting [4].
`CCCCN(CCCC)CC(O)c1cc(Cc2ccccc2)nc2c(Cl)cc(Cl)cc12` (stereo unspecified): the T/C is 89 % of control under setting [7], 100 % of control under setting [10] and 100 % of control under setting [13].
In the case of `CCCCOCCOP(OCCOCCCC)OCCOCCCC`, the T/C is, setting by setting: under setting [5], 101 % of control; under setting [8], 102 % of control; under setting [11], 90 % of control.
